Columns and labels:
[1] = biological target: T1, 5-HT-1A receptors (Rattus norvegicus, UniProt P19327); assay: Affinity for 5-HT-1A receptors: displacement of tritiated 8-OH-DPAT on rat brain membranes; assay type: binding; details: Ki from IC50 by Cheng and Prusoff, read-out: Inhibition constants at 5-HT1A-receptor (Ki)
T1 construct: 5-HT-1A receptors in rat brain membranes; from tissue; host or cells: rat brain membranes
T1 sequence (P19327 1-422): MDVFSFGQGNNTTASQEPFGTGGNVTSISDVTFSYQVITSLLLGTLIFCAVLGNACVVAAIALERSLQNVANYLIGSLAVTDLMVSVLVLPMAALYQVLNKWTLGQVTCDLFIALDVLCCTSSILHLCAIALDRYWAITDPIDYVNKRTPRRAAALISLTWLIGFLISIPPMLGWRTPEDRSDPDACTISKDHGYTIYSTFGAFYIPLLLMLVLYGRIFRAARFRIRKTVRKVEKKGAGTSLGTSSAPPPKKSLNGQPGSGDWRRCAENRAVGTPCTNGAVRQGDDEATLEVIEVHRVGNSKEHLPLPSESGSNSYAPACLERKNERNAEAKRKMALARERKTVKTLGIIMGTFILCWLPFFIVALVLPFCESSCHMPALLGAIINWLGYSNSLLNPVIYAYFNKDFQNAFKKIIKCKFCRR
Protocol: The affinity of compounds of the general formula I for 5-HT-1A receptors was determined by the method described by H. Gozlan, S. Elmestikawy, L. Pichat, J. Glowinski and M. Hamon in Nature 305, 140-142 (1983). In this method the competitive displacement of tritiated 8-OH-DPAT (8-hydroxy-(di-n-propylamino)tetralin) on rat brain membranes by the test substances is measured, and the IC50 (50% inhibition concentration) is determined as that concentration which brings about a 50% inhibition of the specific binding of tritiated 8-OH-DPAT to 5-HT-1A receptors in rat brain membranes.
The concentration-independent inhibitor constants K1 -alpha1 and K1 -5HT-1A were determined from the IC50 values as stated by Y. Cheng and H. W. Prusoff in Biochem. Pharmacol. 22, 3099-3108 (1973).

[2] = biological target: T2, alpha1 adrenoceptors (Rattus norvegicus, UniProt P15823); assay: Affinity for alpha1 adrenoceptors: displacement of tritiated prazosin on rat cardiac membranes; assay type: binding; details: Ki from IC50 by Cheng and Prusoff, read-out: Inhibition constants at alpha-1-adrenoceptor (Ki)
T2 construct: from tissue; host or cells: rat cardiac membranes
T2 sequence (P15823 1-515): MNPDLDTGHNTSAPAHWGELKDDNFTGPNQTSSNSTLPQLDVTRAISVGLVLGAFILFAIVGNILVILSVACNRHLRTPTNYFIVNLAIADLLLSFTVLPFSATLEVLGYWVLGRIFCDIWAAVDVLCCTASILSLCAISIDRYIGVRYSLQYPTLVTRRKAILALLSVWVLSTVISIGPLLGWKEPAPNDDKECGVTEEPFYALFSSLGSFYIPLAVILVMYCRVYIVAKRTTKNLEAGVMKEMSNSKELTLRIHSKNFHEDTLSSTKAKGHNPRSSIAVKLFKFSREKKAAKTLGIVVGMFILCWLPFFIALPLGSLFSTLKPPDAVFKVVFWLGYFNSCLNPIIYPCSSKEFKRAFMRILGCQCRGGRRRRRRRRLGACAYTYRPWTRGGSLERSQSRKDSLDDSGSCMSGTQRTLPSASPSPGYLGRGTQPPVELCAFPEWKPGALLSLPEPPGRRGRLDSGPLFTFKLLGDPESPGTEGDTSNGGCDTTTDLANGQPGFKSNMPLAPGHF
Protocol: The affinity of compounds of the general formula I for alpha1 adrenoceptors was established using the method described by R. S. Williams, D. F. Dukes and […] in J. Cardiovasc. Pharmacol. 3, 522-531 (1981). In this method the competitive displacement of tritiated prazosin (2-(4-(2-furoyl)-1-piperazinyl)-4-amino-6,7-dimethoxy-quinazoline) on rat-cardiac membranes by the test substances is measured, and the IC50 (50% inhibition concentration) is determined as that concentration which brings about a 50% inhibition of the specific binding of tritiated prazosin to the alpha1 adrenoceptors in rat cardiac membranes.
The concentration-independent inhibitor constants K1 -alpha1 were determined from the IC50 values as stated by Y. Cheng and H. W.Prusoff in Biochem. Pharmacol. 22, 3099-3108 (1973).

| Compound | Ki [1] | Ki [2] |
| --- | --- | --- |
| Cn1ncc(Cl)c(NCCN2CCN(c3ccccc3)CC2)c1=O [2-Methyl-5-chloro-4-((2-(4-phenylpiperazinyl-1)ethyl)amino)-3(2H)-pyridazinone] | 519 nM | 86.7 nM |
| COc1ccccc1N1CCN(CCNc2cnn(C(C)(C)C)c(=O)c2Cl)CC1 [2-t-Butyl-4-chloro-5-((2-(4-(2-methoxyphenyl)piperazinyl-1)ethyl)amino)-3(2H)-pyridazinone] | 39.4 nM | 12.8 nM |
| CCOc1ccccc1N1CCN(CCNc2cnn(C)c(=O)c2Cl)CC1 [2-Methyl-4-chloro-5-((2-(4-(2-ethoxyphenyl)piperazinyl-1)ethyl)amino)-3(2H)-pyridazinone] | 36.8 nM | 7.59 nM |
| COc1cc(C)ccc1N1CCN(CCNc2cnn(C)c(=O)c2Cl)CC1 [2-Methyl-4-chloro-5-((2-(4-(2-methoxy-4-methylphenyl)piperazinyl-1)ethyl)amino)-3(2H)-pyridazinone] | 478 nM | 31.4 nM |
| Cn1ncc(NCCN2CCN(c3cccc(C(F)(F)F)c3)CC2)c(Cl)c1=O [2-Methyl-4-chloro-5-((2-(4-(3-trifluoromethylphenyl)piperazinyl-1)ethyl)amino-3(2H)-pyridazinone] | 28.5 nM | 94.2 nM |
| COc1ccccc1N1CCN(CCNc2c(Cl)cnn(C(C)(C)C)c2=O)CC1 [2-t-Butyl-5-chloro-4-((2-(4-(2-methoxyphenyl)piperazinyl-1)ethyl)amino)-3(2H)-pyridazinone] | 9.45 nM | 42.2 nM |
| COc1cc(C)ccc1N1CCN(CCNc2ccnn(C)c2=O)CC1 [2-Methyl-4-((2-(4-(2-methoxy-4-methylphenyl)piperazinyl-1)ethyl)amino)-3(2H)-pyridazinone] | 272 nM | 171 nM |
| COc1ccccc1N1CCN(CCNc2cnn(CCO)c(=O)c2Cl)CC1 [2-Hydroxyethl-4-chloro-5-((2-(4-(2-methoxyphenyl)piperazinyl-1-)ethyl)amino-3(2H)-pyridazinone] | 86.3 nM | 10.8 nM |
| COc1ccccc1N1CCN(CCNc2cnn(C)c(=O)c2)CC1 [2-Methyl-5-((2-(4-(2-methoxyphenyl)-1-piperazinyl)ethyl)amino)-3(2H)-pyridazinone] | 43.6 nM | 190 nM |
| COc1ccccc1N1CCN(CCNc2cnn(CCO)c(=O)c2)CC1 [2-Hydroxyethyl-5-((2-(4-(2-methoxyphenyl)piperazinyl-1)ethyl)amino)-3(2H)-pyridazinone] | 55.8 nM | 128 nM |
| COc1ccc(C)cc1N1CCN(CCNc2cnn(C)c(=O)c2)CC1 [2-Methyl-5-((2-(4-(2-methoxy-5-methylphenyl)piperazinyl-1)ethyl)amino)-3(2H)-pyridazinone] | 523 nM | 82.6 nM |
| Cn1ncc(NCCN2CCN(c3ccccc3)CC2)cc1=O [2-Methyl-5-((2-(4-phenylpiperazinyl-1)ethyl)amino)-3(2H)-pyridazinone] | 274 nM | 157 nM |
| COc1ccccc1N1CCN(CCNc2cnn(CCN(C)C)c(=O)c2Cl)CC1 [2-(Dimethylaminoethyl)-4-chloro-5-((2-(4-(2-methoxyphenyl)piperazinyl-1)ethyl)amino)-3(2H)-pyridazinone] | 118 nM | 17.3 nM |
| COc1ccccc1N1CCN(CCCNc2cc(Cl)nn(C)c2=O)CC1 [2-Methyl-6-chloro-4-((3-(4-(2-methoxyphenyl)-1-piperazinyl)propyl)amino)-3(2H)-pyridazinone] | 46.6 nM | 11 nM |
| COc1ccc(C)cc1N1CCN(CCNc2ccnn(C)c2=O)CC1 [2-Methyl-4-((2-(4-(2-methoxy-5-methylphenyl)piperazinyl-1)ethyl)amino)-3(2H)-pyridazinone] | 186 nM | 73.6 nM |
| Cn1nccc(NCCN2CCN(c3ccccc3)CC2)c1=O [2-Methyl-4-((2-(4-phenylpiperazinyl-1)ethyl)amino)-3(2H) pyridazinone] | 261 nM | 90.3 nM |
| Cn1nccc(NCCN2CCN(c3cccc(C(F)(F)F)c3)CC2)c1=O [2-Methyl-4-((2-(4-(3-trifluoromethylphenyl)piperazinyl-1)ethyl)amino-3(2H)-pyridazinone] | 4.56 nM | 175 nM |
| COc1ccccc1N1CCN(CCNc2ccnn(CCO)c2=O)CC1 [2-Hydroxyethyl-4-((2-(4-(2-methoxyphenyl)piperazinyl-1)ethyl)amino)-3(2H)-pyridazinone] | 18.2 nM | 17.7 nM |

Other lines, results leading:

| Ki [1] | Ki [2] | Compound |
| --- | --- | --- |
| 80.8 nM | 2.51 nM | Cn1ncc(Cl)c(NCCN2CCN(c3ccccc3F)CC2)c1=O [2-Methyl-5-chloro-4-((2-(4-(2-fluorophenyl)piperazinyl-1)ethyl)amino-3(2H)-pyridazinone] |
| 63.2 nM | 7.57 nM | COc1ccccc1N1CCN(CCNc2cnn(C)c(=O)c2Cl)CC1 [2-methyl-4-chloro-5-((2-(4-(2-methoxyphenyl)-1-piperazinyl)ethyl)amino)-3(2H)-pyridazinone] |
| 16.2 nM | 1.33 nM | COc1ccccc1N1CCN(CCNc2c(Br)cnn(C)c2=O)CC1 [2-Methyl-5-bromo-4-((2-(4-(2-methoxyphenyl)-1-piperazinyl)ethyl)amino)-3(2H)-pyridazinone] |
| 106 nM | 4.05 nM | Cn1ncc(NCCN2CCN(c3ccccc3)CC2)c(Cl)c1=O [2-Methyl-4-chloro-5-((2-(4-phenylpiperazinyl-1)ethyl)amino)-3(2H)-pyridazinone] |
| 33.6 nM | 5.88 nM | COc1ccccc1N1CCN(CCNc2cnn(C)c(=O)c2Br)CC1 [2-methyl-4-bromo-5-((2-(4-(2-methoxyphenyl)-1-piperazinyl)ethyl)amino)-3(2H)-pyridazinone] |
| 1.4 nM | 3.48 nM | COc1ccccc1N1CCN(CCCNc2c(Cl)cnn(C)c2=O)CC1 [2-methyl-5-chloro-4-((3-(4-(2-methoxyphenyl)-1-piperazinyl)propyl)amino)-3(2H)-pyridazinone] |
| 75.8 nM | 4.48 nM | COc1ccccc1N1CCN(CCNc2cnn(-c3ccccc3)c(=O)c2Cl)CC1 [2-Phenyl-4-chloro-5-((2-(4-(2-methoxyphenyl)piperazinyl-1)ethyl)amino)-3(2H)-pyridazinone] |
| 85.1 nM | 6.01 nM | COc1ccc(C)cc1N1CCN(CCNc2c(Cl)cnn(C)c2=O)CC1 [2-Methyl-5-chloro-4-((2-(4-(2-methoxy-5-methylphenyl)piperazinyl-1)ethyl)amino)-3(2H)-pyridazinone] |
| 510 nM | 6.98 nM | COc1ccc(C)cc1N1CCN(CCNc2cnn(C)c(=O)c2Cl)CC1 [2-Methyl-4-chloro-5-((2-(4-(2-methoxy-5-methylphenyl)piperazinyl-1)ethyl)amino)-3(2H)-pyridazinone] |
| 28.4 nM | 5.63 nM | COc1ccccc1N1CCN(CCNc2cc(Cl)nn(C)c2=O)CC1 [2-Methyl-6-chloro-4-((2-(4-(2-methoxyphenyl)piperazinyl-1)ethyl)amino)-3(2H)-pyridazinone] |
| 25.6 nM | 2.42 nM | COc1ccccc1N1CCN(CCNc2c(Cl)cnn(CCO)c2=O)CC1 [2-Hydroxyethyl-5-chloro-4-((2-(4-(2-methoxyphenyl)piperazinyl-1)ethyl)amino)-3(2H)-pyridazinone] |
| – | 7.49 nM | COc1cc(C)ccc1N1CCN(CCCNc2cc(Cl)n[nH]c2=O)CC1 [6-Chloro-4-((3-(4-(2-methoxy-4-methylphenyl)piperazinyl-1)propyl)amino)-3(2H)-pyridazinone] |

Source: patent US5034391A, “Piperazinylalkyl-3(2H)-pyridazinones and the use thereof as agents lowering blood pressure” (CL Pharma Aktiengesellschaft, priority 1988, dated 1991)
